Measurements from article PMC6331850, “Evaluation of the Cytotoxicity of Structurally Correlated p-Menthane Derivatives” (Molecules, 2015).
≈ marks a conversion by molar mass, not a printed value.

Assays:
[1] = test system: HCT-116 (colon carcinoma); assay: MTT cytotoxicity assay, HCT-116; format: cell-based; details: Homo sapiens, 25 μg/mL, 72 h incubation, mean of three independent experiments, read-out: Cell growth inhibition percentage, HCT-116 IG%
Description: (§1) The cytotoxicity of the 18 compounds was tested against OVCAR-8 (ovarian adenocarcinoma), HCT-116 (colon carcinoma), SF-295 (glioblastoma), and HL-60 (leukemia) human cancer cell lines, all obtained from the National Cancer Institute, Bethesda, MD, USA. Cells were grown in RPMI-1640 medium supplemented with 10% fetal bovine serum, 2 mM glutamine, 100 µg/mL streptomycin, and 100 U/mL penicillin, and incubated at 37 °C in a 5% CO2 atmosphere.
(§2) Tumor cell growth was determined by the ability of living cells to reduce the yellow dye 3-(4,5-dimethyl-2-thiazolyl)-2,5-diphenyl-2H-tetrazolium bromide (MTT; Sigma Chemical Co., St. Louis, MO, USA) to a purple formazan product, as described by Mossman. For all experiments, cells were seeded in 96-well plates (0.1 × 10^6 cells/mL in 100 μL medium). After 24 h, the 18 compounds (25 μg/mL), were dissolved in 0.7% dimethyl sulfoxide (DMSO), and were added to each well (three independent experiments, performed in triplicate). Then, the cells were incubated for 72 h at 37 °C in a 5% CO2 atmosphere. The experiment was performed as three independent experiments, using DMSO at 1%, and doxorubicin at […] as negative and positive controls, respectively. Doxorubicin, purity >98%; Sigma Chemical Co.).
(§3) At the end of incubation, the plates were centrifuged, and the medium was replaced by fresh medium (150 μL) containing 0.5 mg/mL MTT. Three hours later, the formazan product was dissolved in 150 μL DMSO, and absorbance was measured using a multiplate reader (DTX 880 Multimode Detector, Beckman Coulter Inc., Packard, ON, Canada). The treatment effects were expressed as the percentage of control absorbance of reduced dye at 595 nm. All absorbance values were converted into a cell growth inhibition percentage (GI%) by the following formula: [GI% = 100 − [(T/C) × 100%] (1) where C is the absorbance for the negative control, and T is the absorbance in the presence of the tested compound. […]

[2] = test system: OVCAR-8 (ovarian adenocarcinoma); assay: MTT cytotoxicity assay, OVCAR-8; format: cell-based; details: Homo sapiens, 25 μg/mL, 72 h incubation, mean of three independent experiments, read-out: Cell growth inhibition percentage, OVCAR-8 IG%
Description: as §1, §2, §3

SF-295 (glioblastoma) = assay: MTT cytotoxicity assay, SF-295; format: cell-based; details: Homo sapiens, 25 μg/mL, 72 h incubation, mean of three independent experiments, read-out: Cell growth inhibition percentage, SF-295 IG%
Description: as §1, §2, §3

[3] = test system: OVCAR-8, HCT-116, and SF-295 human tumor cell lines; assay: MTT cytotoxicity assay, range over the three tumor cell lines; format: cell-based; details: for inhibition at 25 µg/mL: read-out: GI, range over the three cell lines
Description: as §1, §2
At the end of incubation, the plates were centrifuged, and the medium was replaced by fresh medium (150 μL) containing 0.5 mg/mL MTT. Three hours later, the formazan product was dissolved in 150 μL DMSO, and absorbance was measured using a multiplate reader (DTX 880 Multimode Detector, Beckman Coulter Inc., Packard, ON, Canada). The treatment effects were expressed as the percentage of control absorbance of reduced dye at 595 nm. All absorbance values were converted into a cell growth inhibition percentage (GI%) by the following formula: [GI% = 100 − [(T/C) × 100%] (1) where C is the absorbance for the negative control, and T is the absorbance in the presence of the tested compound.
The compounds that caused greater degree of cell growth inhibition and which have not been described in the literature for cytotoxic activity against tumor cell lines were evaluated for their median inhibitory concentration able to induce 50% of maximal effect (IC50). […] In addition, the IC50 was determined against HL-60 only for the most cytotoxic compound 16.

HL-60 (leukemia) = assay: MTT cytotoxicity assay, HL-60; format: cell-based; details: Homo sapiens, 72 h incubation, read-out: IC50 (95% confidence interval), HL-60
Description: as §1
Tumor cell growth was determined by the ability of living cells to reduce the yellow dye 3-(4,5-dimethyl-2-thiazolyl)-2,5-diphenyl-2H-tetrazolium bromide (MTT; Sigma Chemical Co., St. Louis, MO, USA) to a purple formazan product, as described by Mossman. […]
as §3

mouse erythrocytes = assay: Hemolytic assay; format: cell-based; details: up to highest tested concentration 500 μg/mL; data not shown
Description: The test was performed in 96-well plates using a 2% mouse erythrocyte suspension in 0.85% NaCl containing 10 mm CaCl2, following the method as described by Jimenez and collaborators. Various concentrations of compound 16 (0–500 µg/mL) were added to the suspension of red blood cells obtained from mice according to methodology adapted from Kang and collaborators, Pita and collaborators, and Bezerra and collaborators. The tubes with the compound 16 erythrocyte mixtures were incubated on a mixer for 60 min and then centrifuged at 3000 rpm for 5 min. […] After incubation at room temperature for 30 min and centrifugation, the supernatant was removed and the liberated hemoglobin was measured spectrophotometrically as the absorbance at 540 nm.

HL-60 cells [4] = assay: Cell viability, trypan blue dye exclusion test; format: cell-based, human; details: 0.32, 0.64, 1.28 µg/mL; 24 h incubation
Description: The cell viability was determined by the trypan blue dye exclusion test. HL-60 cells were seeded (0.3 × 10^6 cells/mL) in absence or presence of different concentrations of compound 16 (0.32, 0.64, and 1.28 µg/mL). After the incubation period of 24 h, 90 µL were removed from the cell suspension and added to 10 µL of trypan blue. Viable and non-viable cells were differentiated and counted in a Neubauer chamber.

HL-60 cells [5] = assay: Morphological analysis by fluorescence microscopy (acridine orange/ethidium bromide); format: cell-based, human; details: 24 h
Description: HL-60 cells were pelleted and re-suspended in 20 µL of PBS. Then, 1 µL of aqueous acridine orange/ethidium bromide solution (AO/EB, 100 µg/mL) was added, and the cells were observed under a fluorescence microscope. Three hundred cells were counted per sample and classified as viable, apoptotic or necrotic.

HL-60 cells [6] = assay: Morphological analysis with hematoxylin-eosin staining; format: cell-based, human; details: 0.32, 0.64, 1.28 µg/mL; 24 h incubation
Description: For morphological cell analysis, we used hematoxylin-eosin and examined using light microscopy. HL-60 cells were seeded (0.3 × 10^6 cells/mL) in the absence or presence of different concentrations of compound 16 (0.32, 0.64 and 1.28 µg/mL). After an incubation period of 24 h, 50 µL of cell suspension were transferred to cytospin slides, fixed with metanol for 60 s, and stained with hematoxylin-eosin [43].

[7] = Homo sapiens, 72 h, 25 µg/mL, MTT, 72 h, HCT-116, OVCAR-8, SF-295

Row | Compound | inhibition at 25 µg/mL [1] [%] | inhibition at 25 µg/mL [2] [%] | inhibition at 25 µg/mL (SF-295 (glioblastoma)) [%] | inhibition at 25 µg/mL [3, 7] [%] | also measured
1 | C=C(C)[C@@H]1CCC2(C)OC2C1 (single isomer, unassigned; (+)) [Compound 12, (+)-Limonene 1,2-epoxide] | 73.1 | 93.1 | 58.5 | < 50 | fold more cytotoxic than 5 (GI ratio) ([3]; compared with (−)-carvone epoxide (5), 25 µg/mL): 2.5- to 11 fold
2 | CC1=CC[C@@H](C(C)(C)O)CC1O (single isomer, unassigned; (-)) [Compound 13, (−)-Sobrerol] | 9.78 | 41.4 | 34.2 |  | 
3 | CC1([C@@H]2CC=C(C=O)CC2)CO1 (single isomer, unassigned; (-)) [Compound 16, (−)-Perillaldehyde 8,9-epoxide] | 98.6 | 96.3 | 99.9 | 96.3 to 99.9 | IC50 (HL-60 (leukemia)): 0.64 µg/mL (≈ 3.85 µM); IC50 ([3]; Homo sapiens, MTT, 72 h, HCT-116, OVCAR-8, SF-295): 1.03 to 1.75 µg/mL (≈ 6.2 to 10.5 µM); hemolysis (lysis of mouse erythrocytes) (mouse erythrocytes): not hemolytic; effect on number of viable / non-viable cells (HL-60 cells [4]): reduction in the number of viable cells; cell death process, three concentrations tested (HL-60 cells [5]; 0.32, 0.64, 1.28 µg/mL, Figures 3 and 4): cell death by apoptosis; cell morphology, acridine orange/ethidium bromide (HL-60 cells [5]; 0.32, 0.64, 1.28 µg/mL, concentration-dependent, p < 0.05): morphology consistent with apoptosis and necrosis; cell death process at the higher doses (HL-60 cells [5]; doses of 0.64 and 1.28): necrotic cell death; cell morphology, hematoxylin-eosin (HL-60 cells [6]): morphology consistent with apoptosis
4 | C=C(C)[C@@H]1CC=C(C)C(=O)C1 [Compound 1, (−)-Carvone] | 11.9 | 2.28 | 12.3 |  | 
5 | C=C(C)[C@H]1CC=C(C)C(=O)C1 [Compound 2, (+)-Carvone] | 46.1 | 48.1 | 34.4 | < 50 | 
6 | CC1=CC[C@@H](C(C)(C)O)CC1=O [Compound 3, (−)-8-Hydroxycarvotanacetone] | 75.2 | 94 | 61.6 | 61.6 to 94 | GI, range over the three cell lines ([3]; 25 µg/mL, MTT, 72 h, HCT-116, OVCAR-8, SF-295): 61.59% to 94.01%
7 | CC1=CC[C@H](C(C)(C)O)CC1=O [Compound 4, (+)-8-Hydroxycarvotanacetone] | 4.76 | 3.12 | 16.4 |  | 
8 | C=C(C)[C@@H]1CC(=O)[C@@]2(C)O[C@H]2C1 [Compound 5, (−)-Carvone epoxide] | 29.2 | 8.21 | 10.9 |  | 
9 | C=C(C)[C@@H]1C[C@H](O)[C@]2(C)O[C@@H]2C1 [Compound 6, (+)-Carveol epoxide] | 12.4 | 4.58 | 35.4 |  | 
10 | C=C(C)[C@@H]1CC=C(C)[C@H](O)C1 [Compound 7, (−)-cis-carveol] | 9 | 3.61 | 21.2 |  | 
11 | CC(=O)OC(C)(C)[C@@H]1CC=C(C)C(=O)C1 [Compound 8, (−)-8-Acetoxycarvotanacetone] | 10.4 | 1.62 | 30.5 |  | 
12 | CC(C)=C1CC[C@@H](C)CC1=O [Compound 9, (+)-Pulegone] | 10.2 | 14.4 | 27.4 |  | 
13 | C[C@@H]1CCC2(OC2(C)C)C(=O)C1 (stereo partly drawn) [Compound 10, (R)-pulegone oxide] | 43.2 | 17.6 | 16 |  | 
14 | C=C(C)[C@@H]1CC[C@@H](C)CC1=O [Compound 11, (−)-trans-isopulegone] | 19 | 5.98 | 7.56 |  | 
15 | C=C(C)[C@@H]1CC=C(CO)CC1 [Compound 14, (S)-(−)-perillyl alcohol] | 95.8 | 91.7 | 90.9 | 90.9 to 95.8 | 
16 | C=C(C)[C@@H]1CC=C(C=O)CC1 [Compound 15, (−)-Perillaldehyde] | 83 | 70.2 | 59.3 | 59.3 to 83 | 
17 | C=C(C)[C@@H]1CC=C(COC(C)=O)CC1 [Compound 17, (−)-Perillyl acetate] | 14.2 | 3.06 | 16.4 |  | 
18 | C=C(C)[C@@H]1CC=C(COC(=O)c2ccccc2)CC1 [Compound 18, (S)-perillyl benzoate] | 5.02 | 2.86 | 4.53 |  | 
19 | COc1cccc2c1C(=O)c1c(O)c3c(c(O)c1C2=O)C[C@@](O)(C(=O)CO)C[C@@H]3O[C@H]1C[C@H](N)[C@H](O)[C@H](C)O1 [Doxorubicin, reference compound] | 99.2 | 100 | 99.6 |  | 
